Experimental data: patent US20240226096A1, “TREATMENT OF MYELOPROLIFERATIVE DISEASES AND DISORDERS WITH INHIBITORS OF BET FAMILY BDII BROMODOMAIN” (POSEIDON INNOVATION 1, INC., priority 2022, published 2024)

Assays:
[1] = tested on: SET-2 cell line; assay: SET-2 cell line proliferation assay (CellTiter-Glo), combination study; type: cell-based; details: 96 hours, FIG. 2
Procedure: (§1) Test compounds are dissolved at 10 mM DMSO stock solution. Transfer 45 uL of stock solution to a 384 PP-plate. Perform 3 fold, 10-point dilution via transferring 15 uL compound into 30 μL DMSO by using TECAN (EVO200) liquid handler. The plates are spin at room temperature at 1,000 RPM for 1 minute and shake at a plate shaker for 2 minutes. Transfer Compound A and Compound B of diluted compound from compound source plate into the cell plate by using liquid handler Echo665. Harvest the cells from flask into cell culture medium and then count the cell number. Dilute the cells with culture medium to the desired density and 40 μL of cell suspension is added into 384-well plate contain compound. Low control is adding cell culture medium. The final seeding density for SET-2 and BaF3-EPOR-JAK2V617F cell lines are 2,000 cells/well and 1000 cells/well respectively. Cover the plates with lid and mix the plate on orbital shaker (700-900 rpm) for 1 min, transfer the plates into 37° C. 5% CO2 incubator for 4 days culture. After compound treatment for 96 hours, remove the plate from incubators and equilibrated at room temperature for 15 minutes. Add CellTiter-Glo reagent into each well.
(§2) Place the plate on an orbital shaker, and shake at 500-700 rpm to facilitate cell lysis and ATP extraction from the cells. Measure luminescence after 5-10 minutes using BMG.

[2] = tested on: BaF3-EPOR-JAK2V617F cell line; assay: BaF3-JAK2(V617F)-EPOR cell line proliferation assay (CellTiter-Glo), combination study; type: cell-based; details: 96 hours, FIG. 1
Procedure: as §1, §2

[3] = in combination with Ruxolitinib

Cn1ccn(-c2ccc(-c3cc(F)cc(-c4cccc(N5CCN(C(C)(C)C)CC5)c4)c3O)cc2Cl)c1=O [Compound I-1, 1-(3″-(4-(tert-butyl)piperazin-1-yl)-3-chloro-5′-fluoro-2′-hydroxy-[1,1′:3′,1″-terphenyl]-4-yl)-3-methyl-1,3-dihydro-2H-imidazol-2-one]
suppresses proliferation: proliferation of the SET-2 cell line ([1]; compound alone) | proliferation of the SET-2 cell line [1, 3] | proliferation of the BaF3-EPOR-JAK2V617F cell line ([2]; compound alone) | proliferation of the BaF3-EPOR-JAK2V617F cell line [2, 3]
